Like-named read-outs stand apart in the source and are kept apart here.
Legend:
Assay type in all cases: cell-based
MINO (MCL) = test: MTT cell proliferation, lymphoma; conditions: Homo sapiens, 72 h; for activity at 1 µM: of untreated cells, read-out: Proliferating cells (%); for IC50: MTT
How it was run: (§1)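 Lymphoma lines in RPMI-1640 with 10% FBS seeded at 1 × 10^5 cells/mL and treated with 1 μM, or in triplicate with serial dilutions over 40–10 000 nM, for 72 h at 37 °C, 5% CO2. Viability by MTT (4 h), SDS lysis, absorbance at 570 nm with medium-only blanks.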

[1] = test system: VL51 idelalisib-resistant; test: MTT cell proliferation, lymphoma; conditions: Homo sapiens, 72 h, of untreated cells, read-out: Proliferating cells (%)
How it was run: as §1

HBL1 (ABC DLBCL) = test: MTT cell proliferation, lymphoma; conditions: Homo sapiens, 72 h; for activity at 1 µM: of untreated cells, read-out: Proliferating cells (%); for IC50: MTT
How it was run: as §1

VL51 ibrutinib-resistant = test: MTT cell proliferation, lymphoma; conditions: Homo sapiens, 72 h, of untreated cells, read-out: Proliferating cells (%)
How it was run: as §1

VL51 (MZL) = test: MTT cell proliferation, lymphoma; conditions: Homo sapiens, 72 h; for activity at 1 µM: of untreated cells, read-out: Proliferating cells (%); for IC50: MTT
How it was run: as §1

SU-DHL-10 (GCB DLBCL) = test: MTT cell proliferation, lymphoma; conditions: Homo sapiens, SU-DHL10, 72 h; for activity at 1 µM: of untreated cells, read-out: Proliferating cells (%); for IC50: MTT
How it was run: as §1

OVCAR-3 = test: NCI-60 screen; conditions: Homo sapiens, Ovarian Cancer
From the text: (§2) on the full NCI-60 panel comprising cancer cell lines derived from nine human cancer cell types (leukemia, non-small-cell lung, colon, central nervous system, melanoma, ovarian, renal, prostate, and breast).[50]

LOX IMVI = test: NCI-60 screen; conditions: Homo sapiens, Melanoma
From the text: as §2

KM12 = test: NCI-60 screen; conditions: Homo sapiens, Colon Cancer
From the text: as §2

NCI-H522 = test: NCI-60 screen; conditions: Homo sapiens, Non-Small-Cell Lung Cancer
From the text: as §2

PC-3 = test: NCI-60 screen; conditions: Homo sapiens, Prostate Cancer
Protocol: as §2, with “All the synthesized compounds 51–76 were tested at a 10^–5 M concentration for their antitumor activity on the” for “on the”

A498 = test: NCI-60 screen; conditions: Homo sapiens, Renal Cancer
Protocol: as §2, with “All the synthesized compounds 51–76 were tested at a 10^–5 M concentration for their antitumor activity on the” for “on the”

MCF7 = test: NCI-60 screen; conditions: Homo sapiens, Breast Cancer
Protocol: as §2, with “All the synthesized compounds 51–76 were tested at a 10^–5 M concentration for their antitumor activity on the” for “on the”

SF-268 = test: NCI-60 screen; conditions: Homo sapiens, CNS Cancer
Protocol: as §2, with “All the synthesized compounds 51–76 were tested at a 10^–5 M concentration for their antitumor activity on the” for “on the”

NCI-H226 = test: NCI-60 screen; conditions: Homo sapiens, Non-Small-Cell Lung Cancer
Protocol: as §2, with “All the synthesized compounds 51–76 were tested at a 10^–5 M concentration for their antitumor activity on the” for “on the”

SF-295 = test: NCI-60 screen; conditions: Homo sapiens, CNS Cancer
Protocol: as §2, with “All the synthesized compounds 51–76 were tested at a 10^–5 M concentration for their antitumor activity on the” for “on the”

SK-OV-3 = test: NCI-60 screen; conditions: Homo sapiens, Ovarian Cancer
Protocol: as §2, with “All the synthesized compounds 51–76 were tested at a 10^–5 M concentration for their antitumor activity on the” for “on the”

COLO 205 = test: NCI-60 screen; conditions: Homo sapiens, Colon Cancer
Protocol: as §2, with “All the synthesized compounds 51–76 were tested at a 10^–5 M concentration for their antitumor activity on the” for “on the”

MDA-MB-435 = test: NCI-60 screen; conditions: Homo sapiens, Melanoma
Protocol: as §2, with “All the synthesized compounds 51–76 were tested at a 10^–5 M concentration for their antitumor activity on the” for “on the”

IGROV1 = test: NCI-60 screen; conditions: Homo sapiens, IGROV-1; Ovarian Cancer
Protocol: as §2, with “All the synthesized compounds 51–76 were tested at a 10^–5 M concentration for their antitumor activity on the” for “on the”

CAKI-1 = test: NCI-60 screen; conditions: Homo sapiens, Renal Cancer
Protocol: as §2, with “All the synthesized compounds 51–76 were tested at a 10^–5 M concentration for their antitumor activity on the” for “on the”

DU-145 = test: NCI-60 screen; conditions: Homo sapiens, Prostate Cancer
Protocol: as §2, with “All the synthesized compounds 51–76 were tested at a 10^–5 M concentration for their antitumor activity on the” for “on the”

K-562 = test: NCI-60 screen; conditions: Homo sapiens, K562; Leukemia
Protocol: as §2, with “All the synthesized compounds 51–76 were tested at a 10^–5 M concentration for their antitumor activity on the” for “on the”

CCRF-CEM = test: NCI-60 screen; conditions: Homo sapiens, Leukemia
Protocol: as §2, with “All the synthesized compounds 51–76 were tested at a 10^–5 M concentration for their antitumor activity on the” for “on the”

SW-620 = test: NCI-60 screen; conditions: Homo sapiens, Colon Cancer
Protocol: as §2, with “All the synthesized compounds 51–76 were tested at a 10^–5 M concentration for their antitumor activity on the” for “on the”

TK-10 = test: NCI-60 screen; conditions: Homo sapiens, Renal Cancer
Protocol: as §2, with “All the synthesized compounds 51–76 were tested at a 10^–5 M concentration for their antitumor activity on the” for “on the”

M14 = test: NCI-60 screen; conditions: Homo sapiens, Melanoma
Protocol: as §2, with “All the synthesized compounds 51–76 were tested at a 10^–5 M concentration for their antitumor activity on the” for “on the”

NCI-H460 = test: NCI-60 screen; conditions: Homo sapiens, Non-Small-Cell Lung Cancer
Protocol: as §2, with “All the synthesized compounds 51–76 were tested at a 10^–5 M concentration for their antitumor activity on the” for “on the”

HCT-116 = test: NCI-60 screen; conditions: Homo sapiens, Colon Cancer
Protocol: as §2, with “All the synthesized compounds 51–76 were tested at a 10^–5 M concentration for their antitumor activity on the” for “on the”

SK-MEL-5 = test: NCI-60 screen; conditions: Homo sapiens, Melanoma
Protocol: as §2, with “All the synthesized compounds 51–76 were tested at a 10^–5 M concentration for their antitumor activity on the” for “on the”

SNB-19 = test: NCI-60 screen; conditions: Homo sapiens, CNS Cancer
Protocol: as §2, with “All the synthesized compounds 51–76 were tested at a 10^–5 M concentration for their antitumor activity on the” for “on the”

[2] = test system: NCI-60 panel of human cancer cell lines; test: NCI in vitro human tumor cell line screening, full panel; conditions: for MG_MID (mean graph midpoint): arithmetic mean for all tested cancer cell lines
From the text: as §2

[3] = Homo sapiens, full NCI panel, five concentrations 10^–4–10^–8 M, read-out: GI50 (concentration that inhibits 50% net cell growth), range over panel

Structure (SMILES) | activity at 1 µM (MINO (MCL)) [%] | IC50 (MINO (MCL)) [µM] | activity at 1 µM [1] [%] | activity at 1 µM (HBL1 (ABC DLBCL)) [%] | IC50 (HBL1 (ABC DLBCL)) [µM] | activity at 1 µM (VL51 ibrutinib-resistant) [%] | activity at 1 µM (VL51 (MZL)) [%] | IC50 (VL51 (MZL)) [µM] | activity at 1 µM (SU-DHL-10 (GCB DLBCL)) [%] | IC50 (SU-DHL-10 (GCB DLBCL)) [µM] | GI50 (OVCAR-3) [µM] | GI50 (LOX IMVI) [µM] | GI50 (KM12) [µM] | GI50 (NCI-H522) [µM] | GI50 (PC-3) [µM] | GI50 (A498) [µM] | GI50 (MCF7) [µM] | GI50 (SF-268) [µM] | GI50 (NCI-H226) [µM] | GI50 (SF-295) [µM] | further results
CCOC(=O)c1c(Cl)c2c(n1Cc1ccccc1)-c1oncc1CCC2 [Compound 70, Ethyl 7-Chloro-9-benzyl-4,5,6,9-tetrahydropyrrolo[2′,3′:3,4]cyclohepta[1,2-d][1,2]oxazole-8-carboxylate] | 104 | > 10 | 111 | 104 | > 10 | 104 | 108 | > 10 | 69.5 | 9 | 3.13 | 5.26 | 3.7 | 1.29 | 3.16 | 4.38 | 3.21 | > 100 | > 100 | > 100 | GI50 (SK-OV-3): > 100 µM; GI50 (COLO 205): 3.53 µM; GI50 (MDA-MB-435): 1.4 µM; GI50 (IGROV1): 4.39 µM; GI50 (CAKI-1): 3.51 µM; GI50 (DU-145): > 100 µM; GI50 (K-562): 3.68 µM; GI50 (CCRF-CEM): 2.21 µM; GI50 (SW-620): 3.81 µM; GI50 (TK-10): > 100 µM; GI50 (M14): 3.78 µM; GI50 (NCI-H460): 3.62 µM; GI50 (HCT-116): 4.02 µM; GI50 (SK-MEL-5): 3.53 µM; GI50 (SNB-19): > 100 µM; GI50 [2, 3]: 1.29 to 5.89 µM; MG_MID (mean graph midpoint) ([2]; full NCI panel): 7.08 µM
CCOC(=O)c1cc2c(n1Cc1ccccc1OC)-c1oncc1CCC2 [Compound 62, Ethyl 9-(2-Methoxybenzyl)-4,5,6,9-tetrahydropyrrolo[2′,3′:3,4]cyclohepta[1,2-d][1,2]oxazole-8-carboxylate] | 104 | 4 | 63.6 | 128 | > 5 | 80.3 | 71.3 | 3.2 | 51.1 | 3.6 | 0.87 | 7.64 | 2.1 | 0.35 | 2.48 | 3.46 | 0.71 | 46.2 | > 100 | 1.38 | GI50 (SK-OV-3): 2.7 µM; GI50 (COLO 205): 0.87 µM; GI50 (MDA-MB-435): 0.35 µM; GI50 (IGROV1): 1.99 µM; GI50 (CAKI-1): 3.51 µM; GI50 (DU-145): 5.27 µM; GI50 (K-562): 1.59 µM; GI50 (CCRF-CEM): 2.87 µM; GI50 (SW-620): 2.02 µM; GI50 (TK-10): 67.8 µM; GI50 (M14): 3.67 µM; GI50 (NCI-H460): 3.88 µM; GI50 (HCT-116): 3.79 µM; GI50 (SK-MEL-5): 2.61 µM; GI50 (SNB-19): 64.7 µM; GI50 [2, 3]: 0.3 to 46.2 µM; MG_MID (mean graph midpoint) ([2]; full NCI panel): 4.47 µM
CCOC(=O)c1cc2c(n1Cc1cc(OC)cc(OC)c1)-c1oncc1CCC2 [Compound 66, Ethyl 9-(3,5-Dimethoxybenzyl)-4,5,6,9-tetrahydropyrrolo[2′,3′:3,4]cyclohepta[1,2-d][1,2]oxazole-8-carboxylate] | 9.1 | 0.25 | 34.3 | 24.1 | 0.3 | 40.5 | 40.1 | 0.25 | 11.3 | 0.25 | 0.02 | 0.05 | 0.03 | 0.02 | 0.04 | 0.02 | 0.03 | 0.05 | 7.98 | 0.03 | GI50 (SK-OV-3): 0.05 µM; GI50 (COLO 205): 0.03 µM; GI50 (MDA-MB-435): 0.01 µM; GI50 (IGROV1): 0.06 µM; GI50 (CAKI-1): 0.05 µM; GI50 (DU-145): 0.04 µM; GI50 (K-562): 0.04 µM; GI50 (CCRF-CEM): 0.05 µM; GI50 (SW-620): 0.04 µM; GI50 (TK-10): > 100 µM; GI50 (M14): 0.05 µM; GI50 (NCI-H460): 0.04 µM; GI50 (HCT-116): 0.04 µM; GI50 (SK-MEL-5): 0.04 µM; GI50 (SNB-19): 0.15 µM; GI50 ([2]; Homo sapiens, prostate subpanel, read-out: GI50): 0.04 µM; MG_MID (mean graph midpoint) ([2]; full NCI panel): 0.08 µM; mean values of subpanel ([2]; colon and CNS cancers): 0.06 µM; GI50 ([2]; full NCI panel, five concentrations 10^–4–10^–8 M, read-out: GI50 (concentration that inhibits 50% net cell growth), range over panel): 0.01 to 13.4 µM; calculated MG_MID value for each subpanel ([2]; melanoma, prostate and renal subpanels): 0.04 µM
